Patent US10604524B2, “Pyrropyrimidine compounds as MNKs inhibitors” (LIFEARC, priority 2015, dated 2020)
pIC50: −log10 of the molar value.

Key:
eIF4E phosphorylation = settings: after oral administration, normal mouse tissues and xenografted tumors; cited from earlier work
HCT116 xenograft = HCT116 xenograft models; cited from earlier work
[1] = test system: B16 melanoma lung metastases; settings: in vivo; cited from earlier work
keratinocytes = settings: cited from earlier work
[2] = test system: monocytic cell line THP-1; settings: cited from earlier work
Full-length human MNK2 = Full-length human MNK2 (Homo sapiens, UniProt Q9HBH9, T379D); test: MNK2 biochemical IC50 assay (Caliper mobility shift)
Full-length human MNK1 = Full-length human MNK1 (Homo sapiens, UniProt Q9BUB5, T385D); test: MNK1 biochemical IC50 assay (Caliper mobility shift)
[3] = test system: phosphorylation of eIF4E at ser209 in MV4.11 cell line; test: cells; assay type: cell-based; settings: Homo sapiens; MV4.11 cells, 1.5 hr compound incubation, average of at least 2 independent experiments; read-out: plc50 elF4E (converted)
Method: MNK activity in cells was measured by monitoring the phosphorylation of eIF4E at ser209, the known endogenous substrate of MNK1/2, in cell lysates. […] The assay detection is based on the formation of sandwich antibody complexes coupled to donor and acceptor beads. Excitation at 680 nm causes the transfer of a singlet oxygen species between donor and acceptor beads when they are in close proximity by binding to the analyte […], which results in the emission of light at 520-620 nm.
Cells were then lysed and the Aphascreen Surefire protocol followed according to manufacturer's recommendations. 8 ul Acceptor beads (1:50 dilution in kit activation buffer) was added to lysate, shaken 150 rpm for 2 min and incubated for 1.5 hr at room temperature. 3 ul Donor beads (1:20 dilution in kit dilution buffer) were then added, shaken 150 rpm for 2 min and incubated for a further 1.5 hr at room temperature after which the plates were read on Pherastar FS using Alphascreen optic module.
Data were normalised relative to untreated DMSO only controls and curves repeated in duplicate within experiments. Data reported are averages of at least 2 independent experiments.

Full-length human MNK2, sequence (Q9HBH9 whole entry T379D): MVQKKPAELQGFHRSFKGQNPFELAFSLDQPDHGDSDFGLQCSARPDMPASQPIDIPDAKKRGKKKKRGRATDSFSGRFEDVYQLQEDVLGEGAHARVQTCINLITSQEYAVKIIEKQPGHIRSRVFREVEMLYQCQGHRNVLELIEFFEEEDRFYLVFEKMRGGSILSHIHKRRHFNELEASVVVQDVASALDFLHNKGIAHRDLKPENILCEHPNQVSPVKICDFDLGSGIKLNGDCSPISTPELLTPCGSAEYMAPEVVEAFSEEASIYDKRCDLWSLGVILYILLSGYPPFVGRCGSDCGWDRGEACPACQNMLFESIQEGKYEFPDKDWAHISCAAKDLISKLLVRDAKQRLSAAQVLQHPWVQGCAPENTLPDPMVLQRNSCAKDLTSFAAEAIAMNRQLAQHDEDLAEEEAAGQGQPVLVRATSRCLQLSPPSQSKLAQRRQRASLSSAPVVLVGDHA
Full-length human MNK1, sequence (Q9BUB5 1-424 isoform Q9BUB5-2 T344D): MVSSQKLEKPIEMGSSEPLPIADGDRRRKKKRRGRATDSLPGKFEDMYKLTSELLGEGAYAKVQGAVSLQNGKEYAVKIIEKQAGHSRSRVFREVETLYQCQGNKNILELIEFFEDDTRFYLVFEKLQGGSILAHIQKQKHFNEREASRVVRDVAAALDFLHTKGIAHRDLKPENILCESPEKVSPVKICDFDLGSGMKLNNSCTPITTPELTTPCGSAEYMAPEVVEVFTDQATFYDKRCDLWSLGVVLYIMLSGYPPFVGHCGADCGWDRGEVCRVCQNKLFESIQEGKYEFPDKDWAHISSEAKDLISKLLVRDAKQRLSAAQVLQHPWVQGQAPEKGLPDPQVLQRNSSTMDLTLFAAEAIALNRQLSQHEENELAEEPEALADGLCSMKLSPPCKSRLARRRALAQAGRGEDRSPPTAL

Structure (SMILES)	pIC50 (Full-length human MNK2)	pIC50 (Full-length human MNK1)	IC50 [3] [nM]	also measured
CC(=O)C1=C(O)C=C2Oc3c(C(N)=O)c(O)cc(O)c3[C@]2(C)C1=O [cercosporamide]	–	–	–	time to effectively block eIF4E phosphorylation (eIF4E phosphorylation): ≤ 30 min; tumor growth (HCT116 xenograft): reducing tumor growth; outgrowth of B16 melanoma lung metastases [1]: suppressing the outgrowth
Nc1ncnc2n[nH]c(Nc3ccc(F)cc3)c12 [CGP57380]	–	–	–	TNF-production (keratinocytes): reduced TNF-production; expression of IL-1β and IL-6 (keratinocytes): decreased expression; block of release of IL-1β and IL-8 induced by Shiga toxin [2]: 73-96%
Cn1ccc2ncnc(Nc3ccc(F)cc3O[C@H]3CCOC3)c21 [Example 15, N-[4-fluoro-2-[(3S)-tetrahydrofuran-3-yl]oxy-phenyl]-5-methyl-pyrrolo[3,2-d]pyrimidin-4-amine]	6.80	6.40	31.6	–
CCCn1ccc2ncnc(Nc3ccc(F)cc3OC(C)C)c21 [Example 2, N-(4-fluoro-2-isopropoxy-phenyl)-5-propyl-pyrrolo[3,2-d]pyrimidin-4-amine]	6.40	6.30	158	–
CC(C)Oc1cc(F)ccc1Nc1ncnc2ccn(C(C)C)c12 [Example 3, N-(4-fluoro-2-isopropoxy-phenyl)-5-isopropyl-pyrrolo[3,2-d]pyrimidin-4-amine]	6.30	6.00	158	–
CC(C)Oc1nc(Cl)ccc1Nc1ncnc2ccn(C)c12 [Example 6, N-(6-chloro-2-isopropoxy-3-pyridyl)-5-methyl-pyrrolo[3,2-d]pyrimidin-4-amine]	7.20	6.60	63.1	–
CCOc1cc(F)ccc1Nc1ncnc2ccn(C)c12 [Example 30, N-(2-ethoxy-4-fluoro-phenyl)-5-methyl-pyrrolo[3,2-d]pyrimidin-4-amine]	6.90	6.70	63.1	–
CC(CF)Oc1cc(F)ccc1Nc1ncnc2ccn(C)c12 (racemic) [Example 26, Racemic-N-[4-fluoro-2-(2-fluoro-1-methyl-ethoxy)phenyl]-5-methyl-pyrrolo[3,2-d]pyrimidin-4-amine]	7.50	7.10	15.8	–
CC(C)Oc1cc(Cl)ccc1Nc1ncnc2ccn(C)c12 [Example 9, N-(4-chloro-2-isopropoxy-phenyl)-5-methyl-pyrrolo[3,2-d]pyrimidin-4-amine]	7.10	6.80	79.4	–
CN(C)CCCNC(=O)c1cc2ncnc(N3CCc4cc(F)ccc43)c2[nH]1 [Example 39, N-[3-(dimethylamino)propyl]-4-(5-fluoroindolin-1-yl)-5H-pyrrolo[3,2-d]pyrimidine-6-carboxamide]	7.90	7.90	25.1	–
Cn1ccc2ncnc(Nc3ccc(F)cc3O[C@@H]3CCOC3)c21 [Example 16, N-[4-fluoro-2-[(3R)-tetrahydrofuran-3-yl]oxy-phenyl]-5-methyl-pyrrolo[3,2-d]pyrimidin-4-amine]	6.90	6.60	79.4	–
Cc1ccc(Nc2ncnc3ccn(C)c23)c(OC(C)C)c1 [Example 8, N-(2-isopropoxy-4-methyl-phenyl)-5-methyl-pyrrolo[3,2-d]pyrimidin-4-amine]	5.90	5.50	501	–
CC(C)Oc1cc(F)ccc1Nc1ncnc2c(Cl)c(C(=O)NCCCN(C)C)n(C)c12 [Example 43, 7-Chloro-N-[3-(dimethylamino)propyl]-4-{[4-fluoro-2-(propan-2-yloxy)phenyl]amino}-5-methyl-5H-pyrrolo[3,2-d]pyrimidine-6-carboxamide]	6.00	5.90	794	–
CO[C@@H]1CCC[C@H](Oc2cc(F)ccc2Nc2ncnc3ccn(C)c23)C1 [Example 21, N-[4-fluoro-2-[(1S,3R)-3-methoxycyclohexoxy]phenyl]-5-methyl-pyrrolo[3,2-d]pyrimidin-4-amine]	7.10	6.80	25.1	–
COc1ccc(Nc2ncnc3ccn(C)c23)c(OC(C)C)c1 [Example 10, N-(2-isopropoxy-4-methoxy-phenyl)-5-methyl-pyrrolo[3,2-d]pyrimidin-4-amine]	5.90	5.00	200	–
COc1ncccc1Nc1ncnc2ccn(C)c12 [Example 35, N-(2-methoxy-3-pyridyl)-5-methyl-pyrrolo[3,2-d]pyrimidin-4-amine]	5.90	5.80	1000	–
CC(C)Oc1cc(F)ccc1Nc1ncnc2ccn(CCO)c12 [Example 4, 2-[4-(4-Fluoro-2-isopropoxy-anilino)pyrrolo[3,2-d]pyrimidin-5-yl]ethanol]	5.90	5.70	251	–
COCCn1ccc2ncnc(Nc3ccc(F)cc3OC(C)C)c21 [Example 5, N-(4-fluoro-2-isopropoxy-phenyl)-5-(2-methoxyethyl)pyrrolo[3,2-d]pyrimidin-4-amine]	5.70	5.50	1000	–
Cn1ccc2ncnc(Nc3ccc(F)cc3O[C@H]3CCCC[C@@H]3O)c21 [Example 36, (1S,2S)-2-[5-fluoro-2-[(5-methylpyrrolo[3,2-d]pyrimidin-4-yl)amino]phenoxy]cyclohexanol]	6.60	6.10	39.8	–
CC(C)Oc1c(Nc2ncnc3ccn(C)c23)ccc(F)c1F [Example 32, N-(3,4-difluoro-2-isopropoxy-phenyl)-5-methyl-pyrrolo[3,2-d]pyrimidin-4-amine]	6.00	5.70	794	–
Cn1ccc2ncnc(Nc3ccc4[nH]ncc4c3)c21 [Example 14, N-(1H-indazol-5-yl)-5-methyl-pyrrolo[3,2-d]pyrimidin-4-amine]	6.40	6.60	398	–
